Experimental data: patent publication US20040029965A1, “Formulations for reducing or eliminating toxicity of enviromental hormones containing ursodeoxycholic acid” (priority 2000, published 2004)

Key:
[1] = test system: C57B1/6J mice; test: Organ weights (liver, kidneys, testes, epididymides) of mice after a single subcutaneous injection of TCDD; format: in vivo
Protocol: Male C57B1/6J mice of 5 weeks old having the average weight of 18-22 g which had been bred in CRJ (Charles River in Japan) were purchased and used in this example as experimental animals. Those mice were acclimated under the constant breeding condition, i.e. the temperature of 24±1° C., the humidity of 60±10% and the light and darkness cycle of 12 hours, for one week and thereafter, utilized in the experiment.
(§1) 2,3,7,8-tetrachlorodibenzo-p-dioxin (TCDD) dissolved in toluene (purity of 95% or more as a result of gas chromatography analysis), manufactured by Chem. Services Inc. in USA, was volatilized with nitrogen to obtain powder. The obtained powder was dissolved in a mixed solvent containing acetone and corn oil with a volume ratio of 1:6. The resulting solution each containing 110, 27.5 and 6.9 μg/kg of TCDD was subcutaneously injected to mice at a volume of 5 ml per body weight. […] The mice were supplied with the feed from 10 days before (pre-administration) to 60 days after administration of TCDD (post-administration).
(§2) Upon completion of the experiment for 60 days, the experimental animals were fasted for 24 hours and anesthetized with ether. Then, they were abdominally incised and blood was gathered from abdominal vena cava. They were sacrificed by the release of blood. Liver, kidneys, testes and epididymides were extracted and all the extracted organs were weighed. Only the testes were separately kept and observed under optical and electron microscopes. For biochemical finding test, serum was separated from blood with a centrifuge and the separated serum was analyzed with an automated blood biochemical analyzer, Dimension (Dupont, USA). Blood was put to another blood gathering bottle and then, analyzed with an automated blood cell analyzer, Celldyn (Abbott, USA).
The results are expressed as Mean±Standard Deviation values. For statistical analysis of the body weight, feed and water uptake, biochemical findings, hematological findings and the weight of organ in an acute toxicity test, verification was performed by one way analysis of variance (ANOVA) in case of equal distribution. In case significance was recognized in ANOVA, the Student's t-test was performed in the levels of p<0.05 and p<0.01.
The organs, i.e. liver, kidneys, testes and epididymides, were weighed and the results are shown in the following.

[2] = test system: C57B1/6J mice; test: Optical microscopy of testes (histopathological findings); format: in vivo
Protocol: as §1, §2
The extracted testes were fixed in 10% neutralized formalin buffer for 24 hours and washed with the flowing water. It was subsequently dehydrated with ethanol and cleared with xylene and then, embedded with paraffin. It was sectioned with microtome (microm is HM 440E) to a thickness of 2-3 μm and then, double stained with hematoxylin and eosin to observe under an optical microscope.

[3] = TCDD 27.5 μg/kg + UDCA 0.125 wt %
[4] = TCDD 27.5 μg/kg + UDCA 0.25 wt %
[5] = TCDD 27.5 μg/kg + UDCA 0.5 wt %
[6] = TCDD 110.0 μg/kg + UDCA 0.125 wt %
[7] = TCDD 110.0 μg/kg + UDCA 0.25 wt %
[8] = TCDD 110.0 μg/kg + UDCA 0.5 wt %

In the case of `C[C@H](CCC(=O)O)[C@H]1CC[C@H]2[C@@H]3[C@@H](O)C[C@@H]4C[C@H](O)CC[C@]4(C)[C@H]3CC[C@]12C` [UDCA, 3α, 7β-dihydroxy-5β-cholanoic acid], the “Liver Weight” value ([1]; TCDD 6.9 μg/kg + UDCA 0.5 wt %) was 1.028 ± 0.073 g, the “Right epididymis Relative weight” value ([1]; TCDD 6.9 μg/kg + UDCA 0.5 wt %) was 0.114 ± 0.015% and the “Right epididymis Weight” value ([1]; TCDD 6.9 μg/kg + UDCA 0.5 wt %) was 0.027 ± 0.004 g. For the same molecule, the “Right kidney Relative weight” value ([1]; TCDD 6.9 μg/kg + UDCA 0.5 wt %) was 0.516 ± 0.043%, the “Right kidney Weight” value ([1]; TCDD 6.9 μg/kg + UDCA 0.5 wt %) was 0.125 ± 0.009 g and the “Right testis Relative weight” value ([1]; TCDD 6.9 μg/kg + UDCA 0.5 wt %) was 0.307 ± 0.031%. The “Right testis Weight” value ([1]; TCDD 6.9 μg/kg + UDCA 0.5 wt %) was 0.074 ± 0.007 g, the “Left epididymis Relative weight” value [1, 3] was 0.112 ± 0.017% and the “Left epididymis Weight” value [1, 3] was 0.027 ± 0.003 g. For the same molecule, the “Left kidney Relative weight” value [1, 3] was 0.517 ± 0.056 %, the “Left kidney Weight” value [1, 3] was 0.127 ± 0.012 g and the “Left testis Relative weight” value [1, 3] was 0.284 ± 0.025 %. For the same molecule, the “Left testis Weight” value [1, 3] was 0.070 ± 0.005 g, the “Liver Relative weight” value [1, 3] was 4.832 ± 0.327% and the “Liver Weight” value [1, 3] was 1.187 ± 0.086 g. The “Right epididymis Relative weight” value [1, 3] was 0.105 ± 0.015 %, the “Right epididymis Weight” value [1, 3] was 0.026 ± 0.003 g and the “Right kidney Relative weight” value [1, 3] was 0.489 ± 0.055 %. For the same molecule, the “Right kidney Weight” value [1, 3] was 0.120 ± 0.013 g, the “Right testis Relative weight” value [1, 3] was 0.285 ± 0.016 % and the “Right testis Weight” value [1, 3] was 0.070 ± 0.003 g. For the same molecule, the “Left epididymis Relative weight” value [1, 4] was 0.120 ± 0.018%, the “Left epididymis Weight” value [1, 4] was 0.029 ± 0.003 g and the “Left kidney Relative weight” value [1, 4] was 0.508 ± 0.038 %. For the same molecule, the “Left kidney Weight” value [1, 4] was 0.125 ± 0.010 g, the “Left testis Relative weight” value [1, 4] was 0.293 ± 0.032 % and the “Left testis Weight” value [1, 4] was 0.072 ± 0.007 g. For the same molecule, the “Liver Relative weight” value [1, 4] was 4.428 ± 0.198%, the “Liver Weight” value [1, 4] was 1.088 ± 0.030 g and the “Right epididymis Relative weight” value [1, 4] was 0.124 ± 0.020%. For the same molecule, the “Right epididymis Weight” value [1, 4] was 0.030 ± 0.005 g, the “Right kidney Relative weight” value [1, 4] was 0.508 ± 0.029 % and the “Right kidney Weight” value [1, 4] was 0.125 ± 0.007 g. The “Right testis Relative weight” value [1, 4] was 0.290 ± 0.030 %, the “Right testis Weight” value [1, 4] was 0.071 ± 0.007 g and the “Left epididymis Relative weight” value [1, 5] was 0.115 ± 0.015%. The “Left epididymis Weight” value [1, 5] was 0.025 ± 0.004 g, the “Left kidney Relative weight” value [1, 5] was 0.539 ± 0.040 % and the “Left kidney Weight” value [1, 5] was 0.119 ± 0.011 g. The “Left testis Relative weight” value [1, 5] was 0.304 ± 0.040 %, the “Left testis Weight” value [1, 5] was 0.067 ± 0.011 g and the “Liver Relative weight” value [1, 5] was 4.773 ± 0.250%. The “Liver Weight” value [1, 5] was 1.057 ± 0.069 g, the “Right epididymis Relative weight” value [1, 5] was 0.132 ± 0.041% and the “Right epididymis Weight” value [1, 5] was 0.029 ± 0.011 g. The “Right kidney Relative weight” value [1, 5] was 0.538 ± 0.045 %, the “Right kidney Weight” value [1, 5] was 0.119 ± 0.009 g and the “Right testis Relative weight” value [1, 5] was 0.301 ± 0.030 %. The “Right testis Weight” value [1, 5] was 0.067 ± 0.007 g, the “Liver Relative weight” value [1, 6] was 5.118% and the “Liver Weight” value [1, 6] was 0.8153 g. The “Left epididymis Relative weight” value [1, 7] was 0.122%, the “Left epididymis Weight” value [1, 7] was 0.0195 g and the “Left kidney Relative weight” value [1, 7] was 0.6711%. For the same molecule, the “Left kidney Weight” value [1, 7] was 0.1069 g, the “Left testis Relative weight” value [1, 7] was 0.2153% and the “Left testis Weight” value [1, 7] was 0.343 g. For the same molecule, the “Liver Relative weight” value [1, 7] was 8.600 ± 3.276%, the “Liver Weight” value [1, 7] was 1.379 ± 0.327 g and the “Right epididymis Relative weight” value [1, 7] was 0.080%. The “Right epididymis Weight” value [1, 7] was 0.0128 g, the “Right kidney Relative weight” value [1, 7] was 0.6045% and the “Right kidney Weight” value [1, 7] was 0.0963 g. For the same molecule, the “Right testis Relative weight” value [1, 7] was 0.2279%, the “Left epididymis Relative weight” value [1, 8] was 0.114 ± 0.025% and the “Left epididymis Weight” value [1, 8] was 0.021 ± 0.007 g. The “Left kidney Relative weight” value [1, 8] was 0.704 ± 0.199%, the “Left kidney Weight” value [1, 8] was 0.121 ± 0.022 g and the “Left testis Relative weight” value [1, 8] was 0.316 ± 0.074%. The “Left testis Weight” value [1, 8] was 0.057 ± 0.019 g, the “Right epididymis Relative weight” value [1, 8] was 0.127 ± 0.024% and the “Right epididymis Weight” value [1, 8] was 0.024 ± 0.009 g. The “Right kidney Relative weight” value [1, 8] was 0.659 ± 0.133%, the “Right kidney Weight” value [1, 8] was 0.113 ± 0.010 g and the “Right testis Relative weight” value [1, 8] was 0.314 ± 0.067%. For the same molecule, the “Right testis Weight” value [1, 8] was 0.057 ± 0.019 g, the “seminiferous tubules, optical microphotograph” value ([2]; TCDD 27.5 μg/kg + 0.5% by weight of UDCA, FIG. 3) was “normal seminiferous tubules were observed” and the “histopathological findings of testes under an optical microscope” value ([2]; group exposed to UDCA (with TCDD)) was “seminiferous tubules were found to have the similar shape to that of the solvent control”.
